Laboratory results as given in patent US8236340B2, “Drug formulations for coating medical devices” (REVA Medical, Inc., priority 2003, dated 2012).

Columns and labels:
[1] = tested on: smooth muscle cell (SMC) proliferation; details: cited from earlier work
[2] = Solubility/dispersibility of drug in the three formulation approaches; type: physicochemical; details: all three formulation approaches; all components first dissolved in a volatile solvent such as ethanol
Source text: In all cases the drug was coated onto a balloon from an ethanol solution containing C6-ceramide and the other solvents in each formulation. Once the ethanol evaporated from the surface of the device, the drug was uniformly dispersed over the surface and dissolved within the non-volatile solvent(s). The ethanol was useful in that it decreased the viscosity of the oil/drug mixture thereby promoting uniform coating.

[3] = Physical stability of drug coated on balloon from dimethylsulfoxide/ethanol solution; type: physicochemical
Source text: Initially, the deposited lipid form a translucent film, but within an hour or so the deposited material slowly transforms to a white crystallite appearance. The deposition uniformity as measured by microscopy is spotty across the balloon surface. After several days, the white powder continues to transform until it flakes off the balloon and is no longer believed to be in an available state. Decreased availability may be described as the dissolution/deaggregation time of the solid relative to deposition and diffusion within the artery, which prevents it from exerting its effect. Currently, to study the effect of C6-ceramide in animal models, the DMSO/ethanol formulation containing C6-ceramide is coated onto the balloon just prior to insertion into the artery. The role of the solvent is to keep the lipid material in an available film-like state sufficient for it to be rapidly deposited and absorbed quickly in the artery, where it is shown to exert an effect within 15 minutes. However, organic solvents, in which the drug is very soluble, tend to evaporate rapidly and the solvents may also penetrate and affect the balloon performance. Alternative solvents and formulations are needed that permit the drug to remain in a dissolved state yet remain physically stable without changing with time.

solubility/dispersibility in formulation approaches [2]: sufficiently soluble and/dispersible
SMILES: CCCCCCCCCCCCC/C=C/[C@@H](O)[C@H](CO)NC(=O)CCCCC [C6-ceramide]
time to initiate activity ([1]; after application of a single dose from an angioplasty balloon): ≤ 15 min
SMC proliferation ([1]; in vitro cell culture and in vivo (rabbit carotid model and pig coronary)): inhibit SMC proliferation
physical form of deposited drug over time [3]: physical form of the drug changes with time
